The source of these data is US9061981B2, “Diphenyl substituted cyclohexane derivatives, useful as modulators of the estrogen receptors beta” (Acadia Pharmaceuticals Inc., priority 2011, dated 2015).

Where two headings read alike, the source gives them in different places.

The subject of data set [1] is L5/L6 spinal nerve ligation. The data set is described as follows: Spinal nerve ligation model of neuropathic pain. It counts as in vivo, male Sprague-Dawley rats. The following applies: s.c. How it is done: Spinal nerve ligation of the L5/L6 nerve was done as originally described by Kim and Chung, using male Sprague-Dawley rats. Allodynia was assessed by applying a light tactile stimulus (Von Frey hairs) to the plantar surface of the surgical paw until the 50% threshold is established. A positive response is recorded if the paw is sharply withdrawn. Eight VonFrey hairs were used (3.61, 3.84, 4.08, 4.31, 4.56, 4.74, 4.93 and 5.18).

A further data set deals with TNFα. Kind of data set: ELISA for TNFα in PBMCs and brain homogenate after 6OHDA lesion. It counts as in vivo, rat. Particulars: 6OHDA rats. How it is done:
(§1) Thus, Compound 8 was assessed to determine whether ERβ agonist treatment might alter the inflammatory profile following bilateral 6OHDA lesions of the SN. ELISAs for tumor necrosis factor α (TNFα), monocyte chemotactic protein 1 (MCP-1 aka CCL2), interleukin-6 (IL-6), and interleukin-1β were conducted in peripheral blood mononuclear cells (PBMCs) and brain tissue homogenates from sham or 6OHDA treated animals. […] Both TNFα and MCP-1 were elevated in PBMCs from 6OHDA animals (data not shown). Thus, these two markers were chosen for further examination. […] Treatment with Compound 8 prevented the rise in TNFα in both brain and PBMCs (FIG. 6). MCP-1 was elevated in PBMCs following 6OHDA when blood was taken on day 7 post-surgery, but not in brain homogenates taken on day 14 (following behavioral testing). The increase in MCP-1 in PBMCs was not prevented by Compound 8 treatment, even though the behavioral profile was normal. Thus, TNFα might be a maker of an inflammatory pathway triggered by 6OHDA infusion and prevented by treatment with an ERβ agonist in a manner that also prevents motor deficits and dopamine neuron loss in the substantia nigra.

A further data set has as its system MCP-1. Kind of data set: ELISA for MCP-1 in PBMCs after 6OHDA lesion. Format: in vivo, rat. Particulars: 6OHDA rats, blood day 7 post-surgery. How it is done:
as §1

The nature of data set [2]: Bioavailability after intravenous, oral and sublingual administration in rat. The following applies: in vivo, rats. How it is done:
Similarly to the Example above, Compound 8 was also administered to rat intravenously, orally and sublingual. Also the prodrug of Compound 8, i.e. Compound 9, was administered. The bioavailability (% F) indicated for the prodrug Compound 9 is the results of measurements of the bioavailability for Compound 8, which Compound 9 is converted into upon administration. AUC 0-4 was used for calculation of the bioavailability.

Another data set concerns Taxol-induced allodynia. Kind of data set: Taxol-induced neuropathy model. Format: in vivo, male SD rats. Particulars: 2 hours post-dose. How it is done:
Neuropathy was induced in male SD rats by 4×1 mg/kg consecutive daily doses of taxol as described (Naguib M, Diaz P, Xu J J, Astruc-Diaz F, Craig S, Vivas-Mejia P, Brown D L. MDA7: a novel selective agonist for CB2 receptors that prevents allodynia in rat neuropathic pain models. Br J. Pharmacol. 2008 December; 155(7):1104-16). The presence of tactile allodynia (von Frey filament 50% response threshold of <5 g) was confirmed prior to inclusion in the study. Drugs were administered sub-cutaneously (s.c.) except gabapentin was given intra-peritoneally (i.p.). Doses are given in mg/kg. * p<0.05.
Allodynia was assessed by applying a light tactile stimulus (Von Frey hairs) to the plantar surface of the surgical paw until the 50% threshold was established. A positive response was recorded if the paw was sharply withdrawn. Eight VonFrey hairs were used (3.61, 3.84, 4.08, 4.31, 4.56, 4.74, 4.93 and 5.18). MPE (%) was calculated as [(Rdrug−Rveh)/(Rsham−Rveh)]*100% where Rveh was 4 and Rsham was 13. Repeat dosing (FIG. 10C) was performed by administering the indicated doses of Compound 8 once daily via the s.c. route. Efficacy was measured 2 hours post-dose.

Data set [3] can be described thus: Bioavailability after intravenous and sublingual administration in male beagle dogs. Particulars: for half-life: 10 mg/kg. It counts as in vivo. How it is done:
In this example, the sublingual bioavailability of Compound 8 was evaluated after intravenous and sublingual doses in male beagle dogs. The test compound was dosed at 1 and 10 mg/kg through intravenous and sublingual routes, respectively. Plasma samples were collected 10 min, 20 min, 30 min, 45 min, 1 hour, 2 hours, 4 hours, 8 hours, 12 hours and 24 hours post dose. Plasma levels were determined by LC-MS/MS analysis. A pre-study standard curve was analyzed to determine the specificity, range and lower limit of quantification of the LC-MS/MS method. The study samples were treated identically to the standards. Pharmacokinetic parameters were estimated by a non-compartmental model using WinNonlin v4.1 software.

A short description of data set [4]: Brain to plasma ratio in rats. It counts as in vivo.
A short description of data set [5]: Microsomal bioavailability (Table 2). Format: in vitro ADME. The following applies: read-out: Microsomal bioavailability F (%).
The subject of a further data set is CFA-treated animals. The data set is described as follows: Complete Freund's Adjuvant (CFA) model of chronic inflammation. It counts as in vivo, Rats. The following applies: 10 mg/kg sc, 24 hrs after drug administration. How it is done:
Rats were treated with Complete Freund's Adjuvant (CFA). After 4 days (upon reaching stable inflammation), CFA-treated animals were treated with 10 mg/kg subcutaneously (sc) of Compound 8, incomplete Freund's Adjuvant or vehicle, respectively. Responses were measured 24 hrs after drug administration. […] Latencies, expressed in seconds (sec), were defined as the time needed for the animal to remove the treated paw from the hot surface.

A short description of data set [6]: Initial toxicity studies, in vitro and in vivo.
Data set [7] can be described thus: Metabolic stability in liver microsomes, rat. Format: in vitro ADME. Particulars: low value = metabolically stable. How it is done:
(§2) Also the metabolic stability in liver microsomes was tested for some compounds.

Data set [8] can be described thus: Metabolic stability in liver microsomes, human. Format: in vitro ADME. Particulars: low value = metabolically stable. How it is done:
as §2

Where [9] appears, read: dog intravenous 1 mg/kg vs parameters observed in rats.

`Oc1ccc(C2(c3ccccc3F)CCC(F)(F)CC2)cc1` [Compound 8, 4-(4,4-Difluoro-1-(2-fluorophenyl)cyclohexyl)phenol]: the “allodynia (Von Frey 50% threshold)” value in [1] is listed as “reverses allodynia”. For the same compound, in the data set on TNFα, the “6OHDA-induced increase of TNFα in PBMCs and brain” value is listed as “blocked this increase”. Also, in the data set with MCP-1, the “6OHDA-induced increase of MCP-1 in PBMCs” value is reported as “not prevented”. Further, the bioavailability in [2] (po, Compound 8 dosed orally, read-out: oral bioavailability) is approximately 8%; in data set [2] (Compound 8 dosed sublingually, read-out: sublingual bioavailability), 79%; in [3] (male, beagle, plasma, other: sublingual, dog, sublingual 10 mg/kg vs intravenous 1 mg/kg, read-out: overall percent bioavailability following sublingual dose), 44%. In addition, in the data set on Taxol-induced allodynia (once daily s.c.), the “efficacy on repeat dosing” value is recorded as “maintained over 5 days”. For the same compound, in the data set on Taxol-induced allodynia (s.c. (gabapentin i.p.), Compound 8 at 10 and 30 mg/kg), the “effect on Taxol-induced allodynia” value is reported as “essentially complete reversal”. For the same compound, the “Cmax increase compared to rats” value in data set [3] (setting [9]) is recorded as 2 fold. The “clearance decrease compared to rats” value in [3] (setting [9]) is 2 fold. The “volume of distribution decrease compared to rats” value in data set [3] (setting [9]) came to 2 fold. The half-life in [3] (male, beagle, dog, plasma, dog, sublingual 10 mg/kg, read-out: average half-life (converted)) was 2.08 ± 0.5 h; in [3] (male, beagle, dog, plasma, dog, sublingual, as summarised, read-out: half life (converted)) it was 2 h. Also, the clearance in data set [3] (male, beagle, plasma, dog, intravenous 1 mg/kg) was 47 mL/min/kg. Moreover, the Cmax in [3] (male, beagle, plasma, dog, intravenous 1 mg/kg, read-out: average maximum concentration (Cmax)) came to 738 ± 199 ng/mL; in data set [3] (male, beagle, plasma, dog, sublingual 10 mg/kg, read-out: Cmax), 1060 ± 110 ng/mL. In addition, in data set [3] (male, beagle, plasma, dog, intravenous 1 mg/kg, read-out: volume of distribution), the Vd was 3.5 ± 0.9 L/kg. Further, in data set [4], the “brain to plasma ratio” value is listed as “good brain to plasma ratio”. Moreover, the Microsomal bioavailability (predicted from microsomes) in [5] was 4.2%. Besides, the “edema in the treated paw (inflammation)” value with CFA-treated animals was “inhibits hyperalgesia and inflammation”. Moreover, in the data set with CFA-treated animals, the “thermal hyperalgesia, 52° C. hot plate latency” value is recorded as “inhibits hyperalgesia”. In addition, in data set [6], the “tolerability in initial toxicity studies” value was “well tolerated”. Besides, the intrinsic metabolic clearance (microsomal CLint) turned out to be 150 µL/min/mg in data set [7] and 11 µL/min/mg in data set [8].

For the compound `Oc1ccc(C2(c3ccccc3Cl)CCCCC2)cc1F` [Compound 957], the intrinsic clearance (microsomal CLint) in data set [7] was 450 µL/min/mg; in [8], 20 µL/min/mg.
